The results in this text go back to patent EP0467660A2, “Use of d-limonenes as testosterone-5-alpha-reductase inhibitor and as hair grower” (Miyauchi, Yutaka, priority 1990, dated 1992).

This assay has as its system testosterone 5α-reductase. The assay can be described thus: Testosterone 5α-reductase enzymatic activity inhibitory ratio (crude rat prostate enzyme, [4-14C]-testosterone to DHT conversion, TLC). The format is biochemical, Wristar male rat. The conditions noted are these: 37°C, two hours; for inhibitory effect on the testosterone 5α-reductase activity: result in words, Figs. 3-5. The procedure: A Wristar male rat weighing 250-300 g was sacrificed by bleeding, and its prostata was excised. The prostata was cut into fragments under ice-cooling. A 0.1 M HEPES buffer solution (pH: 7.4) containing 0.25 M sucrose (the buffer solution is hereinafter referred to as buffer solution A) was added to the fragments in the amount three times the wet weight of the fragments. Using a Potter-type homogenizer made of Teflon, the mixture was homogenized. The homogenate was filtered using a stainless mesh of a 200 µ size, and then the filtrate was centrifuged at 3000 rpm (900 xg) for ten minutes. The precipitate was suspended in 2.5 parts of buffer solution A, followed by centrifuging at 3000 rpm for five minutes. The residue recovered was suspended in buffer solution A weighing 0.8 times the wet weight of the fragments to produce a crude enzyme solution. The crude enzyme solution was stored at -70°C.
The test sample (less than 10 µl) previously prepared was added to [4-¹⁴C]-testosterone (1.5 nmol, 2.85 kBq), NADPH (0.5 µmol), and the enzyme solution (30 µl) cited above. To this was added the buffer solution A to the extent that the total volume became 100 µl, to prepare a reaction liquid. An enzymatic reaction was performed using the reaction liquid at 37°C for two hours. The enzymatic reaction was initiated by removing the reaction liquid from an ice-water-cooled bath to a 37°C warm bath. The enzymatic reaction was terminated by cooling the reaction liquid in ice-water. […]
A radiation activity of the developed material on the TLC plate cited above was measured by means of an AMBIS image analyzer.
Two spots shown in a chromatogram were subjected to readings of the radiation activities identified by their positions corresponding to testosterone (T) and dihydrotestosterone (DHT) respectively. […] Defining the conversion rate in the presence of the negative control as 100, a percentage of the conversion rate in the presence of the sample was calculated to determine the degree of the enzymatic activity inhibitory ratio of the sample. […]

Take `C=C[C@H]1[C@H](O[C@@H]2O[C@H](CO)[C@@H](O)[C@H](O)[C@H]2O)OC=C2C(=O)OCC[C@]21O` [swertiamarin]: the “inhibitory effect on the testosterone 5α-reductase activity” value was “no inhibitory effect”.
Take `CC1(C)[C@@H](O)CC[C@]2(C)[C@H]3C(=O)C=C4[C@@H]5C[C@@](C)(C(=O)O)CC[C@]5(C)CC[C@@]4(C)[C@]3(C)CC[C@@H]12` [sodium β-glycyrrhetinic acid]: the IC50 (Fig. 1, 120 min, read-out: amount exhibiting a inhibitory ratio of 50%) came out at 500 µM.
Consider `C=C(C)[C@H]1CC=C(C)CC1` [d-limonene], for which the “inhibitory effect on the testosterone 5α-reductase activity” value is “considerable high inhibitory effect”.
